According to publication PMC3758320, “Fate of Ingested Clostridium difficile Spores in Mice” (PLoS ONE, 2013):

Columns and labels:
Vero cells [1] = assay: Cytotoxicity in Vero cells; type: cell-based; conditions: overnight
Protocol: (§1) Vero cells, Caco-2 cells, and murine macrophages J774A.1 were seeded in complete medium (minimum essential medium (MEM), 10% fetal bovine serum (FBS), and 1% penicillin/streptomycin). Cells were grown at 37°C with 5% CO2. Cells were detached by incubation with 1 mM EDTA-trypsin for 5 minutes. Complete medium was then added and monolayers lifted with a cell scraper. Cells were recovered at 800×g for 5 minutes at room temperature and the cell pellet was resuspended in fresh complete medium. A sample of cell suspension was treated with trypan blue to determine background non-viable cells. […]
(§2) The 12-well plates containing cell cultures were used as a qualitative method to determine cytotoxicity by visual observation of morphological changes, such as cell rounding. Cell viability was also determined by trypan blue dye exclusion staining. The 96-well plates cultured with mammalian cells were used as a quantitative method to determine cytotoxicity using the CellTiter Glo Luminescent cell viability assay. This assay quantitates the concentration of ATP, which indicates metabolically active cells. […] Luminescence was read with an integration time of 1 second per well using a Tecan Infinite 200 plate reader and iControl software. The luminescence signals from cell cultures supplemented with DMSO only were set as 100% cell viability. […]

C. difficile spores [2] = system: C. difficile spores; parameters: method as in PMID 23420906; conditions: single 50 mg/kg dose; without any observable toxicity; cited from earlier work
C. difficile spores [3] = assay: Onset of CDI signs in mice (timing of dosage); type: in vivo, C57BL/6N mice
Protocol: Antibiotic treated mice were challenged by oral gavage with 10^8 CFUs of C. difficile strain 630 spores. Individual groups of five mice were treated with a single 300 mg/kg dose of CamSA at 0, 6, 9 or 12 hours post-spore challenge. A second 300 mg/kg dose of CamSA was administered 24 hours after the first dose.

Caco-2 cells = assay: Cytotoxicity in Caco-2 cells; type: cell-based; conditions: overnight
Protocol: as §1, §2

Vero cells [4] = assay: C. difficile toxin-induced cell death (spent media on Vero cells); type: cell-based; conditions: 200 µM; Vero cells exposed 24 hours
Protocol: C. difficile strain 630 spores were washed five times with nanopure water, heat activated at 68°C for 30 minutes and washed five more times with water. Spore pellets were resuspended in 0.1 M sodium phosphate buffer supplemented with 0.5% sodium bicarbonate (pH 6.0) to an OD580 of 1.0. […] Spore suspensions were incubated anaerobically at 37°C overnight. The following day, C. difficile cells and spores were removed by centrifugation and spent media filter sterilized. In parallel, Vero and Caco-2 cells were cultured in 96-well plates, as described above. The mammalian cell cultures were then exposed to varying concentrations of sterile spent media for 24 hours. Cell viability was determined as before with the CellTiter Glo viability kit. The luminescence signals from cell cultures supplemented with 0% spent media were set as 100% cell viability. Percent survival for other conditions was calculated relative to these untreated cells.

[5] = Stability in artificial intestinal juice; type: in vitro ADME; conditions: 24 hours incubation, 37°C, TLC
Protocol: (§3) CamSA was analyzed for stability in simulated gastric and intestinal juices as published. Briefly, 100 mg CamSA was added to 1 ml of either artificial intestinal or artificial gastric juice and incubated at 37°C. Aliquots were taken at 4, 8, 12, and 24 hours. Samples (1 µl) were spotted on silica TLC plates and allowed to air dry. Plates were developed with 75% ethyl acetate/methanol. TLC plates were visualized by spraying with a 10% wt/vol phosphomolybdic acid (PMA)/ethanol solution followed by heating at 100°C for 2 minutes. Quantification of CamSA was determined using a GE Healthcare Typhoon 9410 Variable Mode Imager and analyzed using ImageQuant TL 5.2 software.

mice [6] = assay: Acute toxicity in mice (Fixed Dose Procedure); conditions: oral gavage, three consecutive days, doses up to saturating 300 mg/kg
Protocol: (§5) CamSA was dissolved in DMSO to a concentration of 100 mg/ml. […] A control group was administered DMSO.

C. difficile spores [7] = assay: Enumeration of C. difficile vegetative cells and spores in GI contents and feces of treated mice; type: in vivo, C57BL/6N mice
Protocol: Cages from infected animals were changed and feces were collected at different time points. Selected animals were sacrificed at different time points and their GI tract observed for signs of disease. Gastrointestinal tracts were removed in blocks and GI tract contents were flushed with autoclaved water. Feces and intestinal contents were weighed and homogenized in autoclaved water. Aliquots of the fecal suspensions were heated to 68°C for 30 minutes. Heated and unheated feces and GI tract contents were serially diluted in water and plated on Clostridium difficile selective agar (CDSA). Plates were incubated anaerobically for 48 hours and colonies were counted to enumerate colony-forming units (CFUs). CFUs obtained from unheated samples represent the sum of C. difficile vegetative cells and spores. CFUs obtained from heated samples represent the number of C. difficile spores only. The presence of C. difficile was verified by PRO disk.

B. longum [8] = type: cell-based
Caco-2 cell monolayer = assay: Caco-2 permeability assay
C. difficile spores [9] = assay: Prevention of CDI by bile salt analogs in mice challenged with C. difficile spores; type: in vivo, C57BL/6N mice; conditions: for CDI signs: mice challenged with 10^8 CFU C. difficile spores, three doses
L. gasseri [10] = assay: Stability after incubation with BSH-producing bacteria (L. gasseri); conditions: 24 hours, 6 mM bile salt
E. coli [11] = assay: Stability after incubation with E. coli cultures; conditions: 24 hour incubation
C. difficile spores [12] = assay: Outgrowth of C. difficile spores in germination medium; type: cell-based, C. difficile strain 630; conditions: 200 µM in medium, overnight
[13] = Stability in artificial gastric juice; type: in vitro ADME; conditions: 24 hours incubation, 37°C, TLC
Protocol: as §3

L. gasseri [14] = type: cell-based
B. longum [15] = assay: Stability after incubation with BSH-producing bacteria (B. longum); conditions: 24 hours, 6 mM bile salt
[16] = system: murine macrophages J774A.1; assay: Cytotoxicity in murine macrophages J774A.1; type: cell-based; conditions: macrophage cells, overnight
Protocol: as §1, §2

[17] = Stability in growth medium alone; type: in vitro ADME
Protocol: Following previous procedures, Escherichia coli DH5α, Bifidobacterium longum (ATCC BAA-999) and Lactobacillus gasseri (ATCC 33323) were incubated for 24 hours at 37°C. […] Samples of spent media were taken at 4, 8, 12, and 24 hours. Bile salt concentration was monitored by TLC as above. Percent conjugated bile salts were derived by dividing the intensity of TLC spots obtained at different times by the intensity of the TLC spot obtained before incubation.

E. coli [18] = assay: Effect on bacterial growth (E. coli); type: cell-based, E. coli DH5α; conditions: 10 mM in growth medium, OD580 over 8 hours
Protocol: (§4) Laboratory strains of E. coli DH5α, B. longum, L. gasseri, and C. difficile were individually inoculated from freezer stock onto appropriate agar medium as directed by ATCC. Plates were incubated overnight at 37°C either aerobically (L. gasseri and E. coli) or anaerobically (C. difficile and B. longum). Anaerobic conditions consisted of a 5% CO2, 10% H2, and 85% N2 environment. Single cell clones were carefully selected and used to inoculate 5 mL of liquid medium. Inoculated broth was shaken at 37°C for approximately four hours until optical density at 580 nm reached 0.8 representing exponential phase of growth. […] An increase of optical density at 580 nm (OD580) was used to measure exponential bacterial growth. The OD580 was recorded at 0, 1, 2, 3, 4, 6, and 8 hours post subculture inoculation. Growth inhibition was determined by comparing optical density of bile salt-treated cultures with untreated control cultures.

C. difficile = assay: Effect on bacterial growth (C. difficile vegetative cells); type: cell-based; conditions: 10 mM in growth medium, OD580 over 8 hours
Protocol: as §4

[19] = Caco-2 permeability assay; conditions: human, Caco-2
[20] = system: C. difficile spore germination; parameters: method as in PMID 21478359; conditions: in vitro; read-out: IC50, inhibition of C. difficile spore germination; cited from earlier work
mice [21] = conditions: mouse, in vivo, po
Protocol: as §5

[22] = 300 mg/kg given at 9 or 12 hours post-challenge
[23] = Caco-2, 10 µM, 2 hour incubation

C[C@H](CCC(=O)Nc1cccc(S(=O)(=O)O)c1)[C@H]1CC[C@H]2[C@@H]3[C@H](O)C[C@@H]4C[C@H](O)CC[C@]4(C)[C@H]3C[C@H](O)[C@]12C [CamSA]
cell viability, visual observation and trypan blue staining (Vero cells [1]): appeared healthy | prevention of CDI in mice (C. difficile spores [2]): prevented CDI | CDI outcome (C. difficile spores [3]; [22]): developed severe CDI | time to clinical endpoint post infection (C. difficile spores [3]; [22]): 48 h | protection from CDI (C. difficile spores [3]; 300 mg/kg given up to 6 hours post-challenge): fully protected from CDI | cell viability, visual observation and trypan blue staining (Caco-2 cells): appeared healthy | cell killing by spent media from treated bacterial cultures (Vero cells [4]): less effective at killing epithelial cells | degradation in artificial intestinal juice [5]: No degradation | physical adverse effects or weight loss (mice [6]): No physical adverse effects or weight loss | C. difficile vegetative cells in feces compared to spore counts (C. difficile spores [7]; mice treated with 50 mg/kg): < 10% | C. difficile content of feces (C. difficile spores [7]; treated mice): almost exclusively spores | spores recovered from the cecum and colon (C. difficile spores [7]; treated mice, before the decrease (up to 72 hours after spore challenge)): greater than 12×10^5 CFUs | spores recovered from the cecum and colon (C. difficile spores [7]; treated mice, by 96 hours after spore challenge): less than 2×10^5 CFUs | duration of excretion of ingested C. difficile spores post-challenge (C. difficile spores [7]; treated mice, feces): at least 96 hours | start of excretion of ingested C. difficile spores post-challenge (C. difficile spores [7]; treated mice, feces): 2 h | growth of B. longum (B. longum [8]): unaffected | Comment: efflux (Caco-2 cell monolayer; 10 µM, two hours): Efflux substrate | Comment: permeability ranking (Caco-2 cell monolayer; 10 µM, two hours): Low (Low (Papp < 0.5)) | Efflux Ratio (Caco-2 cell monolayer; 10 µM, two hours, >2 indicates significant efflux activity): >2 | apical to basolateral apparent permeability coefficient (Papp) (Caco-2 cell monolayer; [23]): < 10^−6 cm/s | basolateral to apical Papp (Caco-2 cell monolayer; [23]): 10.9 ×10⁻⁶ cm/s | recovery (Caco-2 cell monolayer; both A→B and B→A assays): 100% | CDI signs (C. difficile spores [9]; 50 mg/kg oral gavage): no sign of CDI | CDI signs (C. difficile spores [9]; 300 mg/kg oral gavage): no sign of CDI | time without signs of CDI post-challenge (C. difficile spores [9]; treated, spore-challenged mice): ≥ 14 days | fraction hydrolyzed to cholic acid by L. gasseri culture (L. gasseri [10]): Less than 30% | stability in E. coli cultures (E. coli [11]): stable | bacterial growth from C. difficile spores (C. difficile spores [12]): reduced but not eliminated | degradation in artificial gastric juice [13]: No degradation | growth of L. gasseri (L. gasseri [14]): unaffected | hydrolysis to cholic acid by B. longum culture (B. longum [15]): hydrolyzed to cholic acid at similar rates | cell viability, visual observation and trypan blue staining [16]: appeared healthy | degradation in growth medium alone [17]: not degraded | growth of E. coli (E. coli [18]): unaffected | growth of C. difficile cells (C. difficile): grew normally

CNC(=C[N+](=O)[O-])NCCSCc1ccc(CN(C)C)o1 [Ranitidine]
Papp A→B at 2 h, 10 µM [19]: 0.3 ×10⁻⁶ cm/s | Papp at 2 h, 10 µM [19]: < 0.5 ×10⁻⁶ cm/s | efflux ratio at 2 h, 10 µM [19]: 5.3

CC(=O)CC(c1ccccc1)c1c(O)c2ccccc2oc1=O (centres unmarked) [Warfarin]
Papp A→B at 2 h, 10 µM [19]: 42.9 ×10⁻⁶ cm/s | Papp B→A at 2 h, 10 µM [19]: 16 ×10⁻⁶ cm/s | Papp at 2 h, 10 µM [19]: > 5 ×10⁻⁶ cm/s | efflux ratio at 2 h, 10 µM [19]: 0.4

C[C@H](CCC(=O)O)[C@H]1CC[C@H]2[C@@H]3[C@H](O)C[C@@H]4C[C@H](O)CC[C@]4(C)[C@H]3CC[C@]12C [chenodeoxycholate]
IC50 [20]: 235 µM | delay of CDI onset (C. difficile spores [9]; 50 mg/kg): 24 h | CDI signs (C. difficile spores [9]; 50 mg/kg oral gavage): moderate to severe signs of CDI | observable side effects (mice [21]; 50 mg/kg): did not cause any observable side effects | acute toxicity outcome (mice [21]; 300 mg/kg): immediate death
